In patent US6936735B2, “Photostable cationic organic sunscreen compounds and compositions obtained therefrom” (EMD Chemicals, Inc., priority 2002, dated 2005):

Assays:
Assay type in all cases: physicochemical
[1] = Comparative photostability of thin film under UV-B irradiation (Q-UV Accelerated Weathering Tester); details: UV-B (1 MED/h), thin film with 0.1% PVP-VA on glass plate, Example 3 1%, Incroquat 283 1%, HP610 0.1%
Protocol: (§1) The photostability of compounds of the present invention as well as existing commercial cationic sunscreens is tested according to the procedure described below: • Photostability: Comparative Photostability of Example 3, Incroquat® 283 and Escalol® HP610
(§2) Three products [Example 3 (1%), Incroquat 283 (1%) and HP610 (0.1%)] were tested for their photostability by dissolving separately in water or ethanol-water solution containing 0.1% Poly(vinylpyrrolidone-vinyl acetate) copolymer (PVP-VA S630 from ISP). Air drying on a glass plate for one hour gave a thin film, which were irradiated under UV A (2 MED/h) and UV B (1 MED/h) light separately over an 8 h period in a Q-UV Accelerated Weathering Tester. Photodegradation was calculated from the decrease in the maximum absorption of the respective products. The results are illustrated in the Tables 1 and 2.

[2] = Comparative photostability of thin film under UV-A irradiation (Q-UV Accelerated Weathering Tester); details: UV-A (2 MED/h), thin film with 0.1% PVP-VA on glass plate, Example 3 1%, Incroquat 283 1%, HP610 0.1%
Protocol: as §1, §2

Solubility = details: for solubility in water: water / aqueous solution
UV absorption maximum = details: EtOH:water—70%:30%
Protocol: The mass was degassed for one hour at 90-95 deg. C. under vacuum. The yield obtained is about 85%. […] A 50% solution in water was prepared for ease of handling.

## CCCCCCCCCCCC[N+](C)(C)CCCNC(=O)c1ccc(N(C)C)cc1.Cc1ccc(S(=O)(=O)[O-])cc1 [Escalol HP ®-610]
[1]
  % Product Retained After 1 hr: 33%
  % Product Retained After 2 hr: 28%
  % Product Retained After Initial: 100%
[2]
  % Product Retained After 2 hr: 50%
  % Product Retained After 4 hr: 40%
  % Product Retained After 6 hr: 30%
  % Product Retained After Initial: 100%
Solubility; aqueous-ethanolic solution (30:70%)
  maximal concentration reached in solution: 0.25%
Solubility
  solubility in water: very poor solubility

## Bis-N-[3(N,N-dimethylamino)propyl]-3,4,5-trimethoxy benzylidene malonamide bis ethylsulfate [Example 3]
[1]
  % Product Retained After 1 hr: 96%
  % Product Retained After 2 hr: 93%
  % Product Retained After Initial: 100%
[2]
  % Product Retained After 2 hr: 98%
  % Product Retained After 4 hr: 97%
  % Product Retained After 6 hr: 94%
  % Product Retained After Initial: 100%
Solubility
  solubility in water: soluble in water
UV absorption maximum
  λmax: 301 nm
